The source of these data is ChEMBL document CHEMBL5143690, “Identification of nitrofuranylchalcone tethered benzoxazole-2-amines as potent inhibitors of drug resistant Mycobacterium tuberculosis demonstrating bactericidal efficacy” (Bioorg Med Chem, 2022).

SMILES strings stand for the structures. Values after ≈ are worked out from the molar mass of the structure shown. Bounds are passed on as bounds.

Holding throughout (format): functional
The test system of one assay is Klebsiella pneumoniae. The assay is described as follows: Antibacterial activity against Klebsiella pneumoniae BAA 1705 assessed as reduction in bacterial growth incubated for 16 to 18 hrs by microtiter plate assay. To be noted: time 16-18 hrs.
For a further assay, the system named is Mycobacteroides chelonae. The experiment in a line: Antimycobacterial activity against Mycobacterium chelonae ATCC 6841 assessed as inhibition of bacterial growth after 48 hrs by resazurin microtitre assay.
In a further assay the test system is Staphylococcus aureus. The experiment in a line: Antibacterial activity against Staphylococcus aureus ATCC 29213 assessed as reduction in bacterial growth incubated for 16 to 18 hrs by microtiter plate assay. To be noted: time 16-18 hrs.
Assay [1] relates to Mycobacteroides abscessus. The experiment in a line: Antimycobacterial activity against Mycobacterium abscessus ATCC 19977 assessed as inhibition of bacterial growth after 48 hrs by resazurin microtitre assay.
Assay [2] concerns Mycolicibacterium fortuitum. The assay is described as follows: Antimycobacterial activity against Mycobacterium fortuitum ATCC 6841 assessed as inhibition of bacterial growth after 48 hrs by resazurin microtitre assay.
The test system of a further assay is Acinetobacter baumannii. The experiment in a line: Antibacterial activity against Acinetobacter baumannii BAA 1605 assessed as reduction in bacterial growth incubated for 16 to 18 hrs by microtiter plate assay. To be noted: time 16-18 hrs.
The test system of a further assay is Pseudomonas aeruginosa. The assay is described as follows: Antibacterial activity against Pseudomonas aeruginosa ATCC 27853 assessed as reduction in bacterial growth incubated for 16 to 18 hrs by microtiter plate assay. To be noted: time 16-18 hrs.
Assay [3] has as its system Mycobacterium tuberculosis. The experiment in a line: Antimycobacterial activity against Mycobacterium tuberculosis H37Rv ATCC 27294 assessed as inhibition of bacterial growth measured after 7 days by resazurin microtitre assay. To be noted: H37Rv ATCC 27294, 168 h, time 7 day.
Another assay concerns Escherichia coli. The assay is described as follows: Antibacterial activity against Escherichia coli ATCC 25922 assessed as reduction in bacterial growth incubated for 16 to 18 hrs by microtiter plate assay. To be noted: time 16-18 hrs.

Consider `O=C(/C=C/c1ccccc1Br)c1ccc(Nc2nc3ccccc3o2)cc1`, for which the MIC (with Klebsiella pneumoniae; in the assay on Mycobacteroides chelonae; in the assay with Staphylococcus aureus; in [1]; in assay [2]; with Acinetobacter baumannii) was more than 64 µg/mL each time. Besides, the MIC (in the assay with Pseudomonas aeruginosa; in [3]; in the assay with Escherichia coli) was more than 64 µg/mL in each case.

Take `COc1ccc(/C=C/C(=O)c2ccc(Nc3nc4ccccc4o3)cc2)cc1OC`: the MIC (in the assay on Klebsiella pneumoniae; with Mycobacteroides chelonae; in the assay on Staphylococcus aureus; in assay [1]; in [2]; with Acinetobacter baumannii) was more than 64 µg/mL in each case. Also, the MIC in the assay with Pseudomonas aeruginosa is more than 64 µg/mL; in assay [3], 32 µg/mL (≈ 79.9 µM); in the assay on Escherichia coli it was more than 64 µg/mL.

`CN[C@@H]1[C@H](O[C@H]2[C@H](O[C@H]3[C@H](O)[C@@H](O)[C@H](N=C(N)N)[C@@H](O)[C@@H]3N=C(N)N)O[C@@H](C)[C@]2(O)C=O)O[C@@H](CO)[C@H](O)[C@H]1O` [STREPTOMYCIN]: in [3], the MIC worked out at 1 µg/mL (≈ 1.72 µM).

`O=C(/C=C/c1ccccn1)c1ccc(Nc2nc3ccccc3o2)cc1`: the MIC (with Klebsiella pneumoniae; in the assay on Mycobacteroides chelonae; in the assay with Staphylococcus aureus; in assay [1]; in assay [2]; with Acinetobacter baumannii) was more than 64 µg/mL in each case. The MIC was more than 64 µg/mL in the assay on Pseudomonas aeruginosa, 4 µg/mL (≈ 11.7 µM) in [3] and more than 64 µg/mL in the assay with Escherichia coli.

With `O=C(/C=C/c1ccccc1)c1ccc(Nc2nc3ccccc3o2)cc1`, the MIC (in the assay on Klebsiella pneumoniae; in the assay on Mycobacteroides chelonae; in the assay with Staphylococcus aureus; in assay [1]; in assay [2]; in the assay on Acinetobacter baumannii) was more than 64 µg/mL throughout. The MIC in the assay on Pseudomonas aeruginosa was more than 64 µg/mL; in [3], 16 µg/mL (≈ 47 µM); in the assay on Escherichia coli, more than 64 µg/mL.

For `COc1ccc(C(=O)/C=C/c2cc(OC)c(OC)c(OC)c2)cc1Nc1nc2ccccc2o1`, the minimal inhibitory concentration (MIC) (in the assay with Klebsiella pneumoniae; in the assay on Mycobacteroides chelonae; in the assay with Staphylococcus aureus; in assay [1]; in assay [2]; with Acinetobacter baumannii) was more than 64 µg/mL throughout. In addition, the MIC in the assay on Pseudomonas aeruginosa is more than 64 µg/mL; in assay [3], 64 µg/mL (≈ 139 µM); in the assay with Escherichia coli, more than 64 µg/mL.

Regarding `COc1cc(/C=C/C(=O)c2ccc(Nc3nc4cc(Cl)ccc4o3)cc2)cc(OC)c1OC`, the MIC (in the assay on Klebsiella pneumoniae; with Mycobacteroides chelonae; with Staphylococcus aureus; in [1]; in [2]; in the assay with Acinetobacter baumannii) was more than 64 µg/mL throughout. Further, the values for the MIC (in the assay with Pseudomonas aeruginosa; in [3]; in the assay on Escherichia coli) were more than 64 µg/mL, 8 µg/mL (≈ 17.2 µM) and more than 64 µg/mL, respectively.

Take `CC[C@@H](CO)NCCN[C@@H](CC)CO` [ETHAMBUTOL]: the MIC in assay [3] worked out at 2 µg/mL (≈ 9.79 µM).

In the case of `Cc1ccc(/C=C/C(=O)c2ccc(Nc3nc4ccccc4o3)cc2)cc1`, the MIC (in the assay on Klebsiella pneumoniae; with Mycobacteroides chelonae; in the assay on Staphylococcus aureus; in assay [1]; in [2]; with Acinetobacter baumannii) was more than 64 µg/mL throughout. The minimum inhibitory concentration (MIC) (in the assay on Pseudomonas aeruginosa; in [3]; with Escherichia coli) was more than 64 µg/mL in each case.

As to `COc1ccc(/C=C/C(=O)c2ccc(Nc3nc4ccccc4o3)cc2)cc1`, the MIC (with Klebsiella pneumoniae; in the assay with Mycobacteroides chelonae; in the assay on Staphylococcus aureus; in [1]; in [2]; with Acinetobacter baumannii) was more than 64 µg/mL throughout. Also, the MIC in the assay on Pseudomonas aeruginosa was more than 64 µg/mL; in [3], 32 µg/mL (≈ 86.4 µM); in the assay on Escherichia coli it was more than 64 µg/mL.

Turning to `C[C@H]1COc2c(N3CCN(C)CC3)c(F)cc3c(=O)c(C(=O)O)cn1c23.C[C@H]1COc2c(N3CCN(C)CC3)c(F)cc3c(=O)c(C(=O)O)cn1c23.O` [LEVOFLOXACIN], the results for the MIC in the assay on Klebsiella pneumoniae, in the assay with Staphylococcus aureus and in the assay on Escherichia coli were 64 µg/mL, 0.125 µg/mL and 0.0078 µg/mL, respectively.

As to `O=C(/C=C/c1ccco1)c1ccc(Nc2nc3ccccc3o2)cc1`, the minimum inhibitory concentration (MIC) (in the assay on Klebsiella pneumoniae; in the assay with Mycobacteroides chelonae; in the assay with Staphylococcus aureus; in assay [1]; in [2]; in the assay with Acinetobacter baumannii) was more than 64 µg/mL in each case. The MIC in the assay on Pseudomonas aeruginosa was more than 64 µg/mL; in assay [3] it was 32 µg/mL (≈ 96.9 µM); in the assay on Escherichia coli, more than 64 µg/mL.

For `O=C(/C=C/c1ccc(Cl)cc1Cl)c1ccc(Nc2nc3ccccc3o2)cc1`, the MIC (with Klebsiella pneumoniae; in the assay on Mycobacteroides chelonae; with Staphylococcus aureus; in [1]; in [2]; with Acinetobacter baumannii) was more than 64 µg/mL each time. The minimal inhibitory concentration (MIC) (in the assay on Pseudomonas aeruginosa; in assay [3]; with Escherichia coli) was more than 64 µg/mL each time.

Regarding `COc1cc(/C=C/C(=O)c2ccc(Nc3nc4ccccc4o3)cc2)cc(OC)c1OC`, the MIC (in the assay on Klebsiella pneumoniae; with Mycobacteroides chelonae; in the assay on Staphylococcus aureus; in assay [1]; in assay [2]; in the assay with Acinetobacter baumannii) was more than 64 µg/mL in each case. Moreover, the MIC is more than 64 µg/mL in the assay on Pseudomonas aeruginosa, 8 µg/mL (≈ 18.6 µM) in assay [3] and more than 64 µg/mL in the assay with Escherichia coli.

As to `CC(=O)N1N=C(c2ccccc2)CC1c1cc(Cl)c2oc(S)nc2c1` (stereo not given), in assay [3], the MIC amounted to 1.25 µg/mL (≈ 3.36 µM).

Take `COc1cc(/C=C/C(=O)c2ccc(Nc3nc4cc(C)ccc4o3)cc2)cc(OC)c1OC`: the minimal inhibitory concentration (MIC) (in the assay with Klebsiella pneumoniae; with Mycobacteroides chelonae; in the assay with Staphylococcus aureus; in assay [1]; in assay [2]; in the assay on Acinetobacter baumannii) was more than 64 µg/mL in each case. In addition, the MIC was more than 64 µg/mL with Pseudomonas aeruginosa, 16 µg/mL (≈ 36 µM) in assay [3] and more than 64 µg/mL in the assay with Escherichia coli.

For the compound `O=C(/C=C/c1ccccc1Cl)c1ccc(Nc2nc3ccccc3o2)cc1`, the minimal inhibitory concentration (MIC) (in the assay on Klebsiella pneumoniae; in the assay with Mycobacteroides chelonae; in the assay with Staphylococcus aureus; in [1]; in [2]; with Acinetobacter baumannii) was more than 64 µg/mL in each case. Further, the MIC (in the assay on Pseudomonas aeruginosa; in [3]; with Escherichia coli) was more than 64 µg/mL each time.

In the case of `COc1ccc(OC)c(C(=O)/C=C/c2ccc3nccnc3c2)c1`, in assay [3], the MIC was determined as 3.13 µg/mL (≈ 9.77 µM).

For the compound `COc1cc(C2CC(c3ccccc3)=NN2C(C)=O)cc2nc(N)oc12` (stereo not given), in assay [3], the MIC amounted to 0.625 µg/mL (≈ 1.78 µM).

On to `O=C(/C=C/c1cccc(Cl)c1)c1ccc(Nc2nc3ccccc3o2)cc1`, for which the MIC (with Klebsiella pneumoniae; in the assay on Mycobacteroides chelonae; in the assay on Staphylococcus aureus; in assay [1]; in assay [2]; in the assay on Acinetobacter baumannii) was more than 64 µg/mL in each case. In addition, the MIC (in the assay on Pseudomonas aeruginosa; in [3]; in the assay on Escherichia coli) was more than 64 µg/mL in each case.

With `COc1ccc(/C=C/C(=O)c2ccc(Nc3nc4ccccc4o3)cc2)c(OC)c1`, the minimal inhibitory concentration (MIC) (in the assay on Klebsiella pneumoniae; in the assay on Mycobacteroides chelonae; in the assay with Staphylococcus aureus; in assay [1]; in assay [2]; in the assay with Acinetobacter baumannii) was more than 64 µg/mL each time. Moreover, the MIC (with Pseudomonas aeruginosa; in assay [3]; in the assay on Escherichia coli) was more than 64 µg/mL throughout.

Consider `CC(=O)N1N=C(c2ccc3oc(-c4ccc(O)cc4)nc3c2)CC1c1cccs1` (stereo not given), for which, in [3], the MIC was found to be 0.8 µg/mL (≈ 1.98 µM).

As for `NNC(=O)c1ccncc1` [ISONIAZID], the MIC in assay [3] was found to be 0.03 µg/mL (≈ 0.219 µM).
